The IC50 is the concentration at which inhibition is half-maximal. As usually defined, the MIC is the smallest concentration in the dilution series that meets the test's criterion for growth inhibition. High values mean a need for much substance, low ones inhibition by little substance.

Structures are written as SMILES. Converted amounts (≈) assume the structure as drawn.

Chain of E. coli Enopyruvyl-UPD-N-acetylglucosamine reductase, Mur B (P08373 whole entry): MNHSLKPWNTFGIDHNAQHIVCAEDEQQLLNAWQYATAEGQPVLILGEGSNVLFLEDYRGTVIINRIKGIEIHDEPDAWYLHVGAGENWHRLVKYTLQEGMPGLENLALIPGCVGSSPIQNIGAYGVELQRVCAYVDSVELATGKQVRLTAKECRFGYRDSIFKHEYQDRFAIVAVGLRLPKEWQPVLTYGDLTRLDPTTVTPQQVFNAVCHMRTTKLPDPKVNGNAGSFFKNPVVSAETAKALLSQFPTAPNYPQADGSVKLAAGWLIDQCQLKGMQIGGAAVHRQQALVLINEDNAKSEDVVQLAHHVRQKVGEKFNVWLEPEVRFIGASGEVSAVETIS

The first test addresses E. coli Enopyruvyl-UPD-N-acetylglucosamine reductase, Mur B (Escherichia coli, UniProt P08373). Put plainly: biochemical. The conditions noted are these: (E) E. coli enzyme.
On to `O=C1O/C(=C\c2ccc(-c3cccc(C(F)(F)F)c3)cc2)C(O)=C1c1cccc(C(F)(F)F)c1`, for which the “MurB IC50” value is 4 (E) μg/mL.
Regarding `O=C1O/C(=C\c2ccc(-c3cc(Cl)cc(Cl)c3)cc2)C(O)=C1c1cc(Cl)cc(Cl)c1`, the “MurB IC50” value was 3 (E) μg/mL.
Take `O=C1OC(=Cc2ccc(-c3ccccc3)cc2)C(O)=C1c1cccc(C(F)(F)F)c1` (mixture of isomers) [Example 11]: the “MurB IC50” value was 6 (E) μg/mL.
`Cc1ccc(C=C2OC(=O)C(c3ccc(Cl)cc3)=C2O)s1` (mixture of isomers) [Example 13]: the “MurB IC50” value is 12 (E) μg/mL.
In the case of `O=C1OC(=Cc2cccc3ccccc23)C(O)=C1c1ccc(C=NO)cc1` (mixture of isomers) [Example 73], the “MurB IC50” value is over 25 µg/mL.
Still for that read-out and setting: for `Cc1ccc(C=C2OC(=O)C(c3ccc(Cl)cc3)=C2O)s1` [Example 14] the value was >25 (E) μg/mL.
`O=C1OC(=CC2CCCCC2)C(O)=C1c1cccc(C(F)(F)F)c1` [Example 16]: the “MurB IC50” value was >25 (E) μg/mL.
Same read-out and setting: the same measure for `O=C1O/C(=C\c2cccc(C(F)(F)F)c2)C(O)=C1c1ccc2ccccc2c1` [Example 42]: 10 (E) μg/mL; for `O=C1O/C(=C\c2cccc(C(F)(F)F)c2)C(O)=C1c1ccc(-c2ccccc2)c(F)c1` [Example 106]: 12 (E) μg/mL.

The same test, now with this note: (E) E. coli enzyme; read-out: MurB IC50 (converted).
Take `O=C1O/C(=C\c2ccc(-c3ccccc3)cc2)C(O)=C1c1cccc(C(F)(F)F)c1` [Example 10]: the IC50 is 14.7 µM.
Same read-out and setting: for `O=C1O/C(=C\C2CCCCC2)C(O)=C1c1ccc(Cl)cc1` [Example 15] the value was over 82 µM.
Turning to `O=C1O/C(=C\C2CCCCC2)C(O)=C1c1cccc(C(F)(F)F)c1` [Example 17], the IC50 was over 70.9 µM.
The same measure, in the same setting: for `COc1cc(/C=C2\OC(=O)C(c3cccc(Cl)c3)=C2O)ccc1-c1ccccc1Cl` [Example 18] the value was 13.7 µM; for `COc1ccccc1-c1ccc(/C=C2\OC(=O)C(c3cc(Cl)cc(Cl)c3)=C2O)cc1OC` [Example 19], 42.6 µM.
`O=C1O/C(=C\c2cccc3ccccc23)C(O)=C1c1cccc2ccccc12` [Example 47]: the IC50 was 63.1 µM.
On the same count and under the same terms, for `O=C1O/C(=C\C2CCCCC2)C(O)=C1c1ccc2ccccc2c1` [Example 51] the value was over 78 µM.

The target in another test is T1, S. aureus Enopyruvyl-UPD-N-acetylglucosamine reductase, Mur B (Staphylococcus aureus, UniProt P61431).
T1 sequence (P61431 1-307): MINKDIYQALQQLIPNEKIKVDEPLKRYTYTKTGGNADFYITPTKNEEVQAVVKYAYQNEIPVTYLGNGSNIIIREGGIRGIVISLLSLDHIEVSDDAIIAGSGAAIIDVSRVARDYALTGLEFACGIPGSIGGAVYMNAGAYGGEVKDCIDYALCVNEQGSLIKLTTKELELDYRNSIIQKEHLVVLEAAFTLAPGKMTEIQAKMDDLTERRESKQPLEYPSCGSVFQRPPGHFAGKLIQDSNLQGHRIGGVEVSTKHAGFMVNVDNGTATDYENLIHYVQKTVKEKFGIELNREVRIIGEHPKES
Put plainly: biochemical. The conditions noted are these: (S) S. aureus enzyme.
For the compound `O=C1OC(=Cc2cccc3ccccc23)C(O)=C1c1ccc(C=NO)cc1` (mixture of isomers) [Example 73], the “MurB IC50” value turned out to be 12 µg/mL.

The test is the same for the next values; noted with them: (S) S. aureus enzyme; read-out: MurB IC50 (converted).
As for `COc1cc(/C=C2\OC(=O)C(c3cccc(Cl)c3)=C2O)ccc1-c1ccccc1Cl` [Example 18], the IC50 was 11.4 µM.
On the same count and under the same terms, for `COc1ccccc1-c1ccc(/C=C2\OC(=O)C(c3cc(Cl)cc(Cl)c3)=C2O)cc1OC` [Example 19] the value was 21.3 µM; for `O=C1O/C(=C\c2cccc3ccccc23)C(O)=C1c1cccc2ccccc12` [Example 47], 27.4 µM.

Another test concerns the target T2, S. aureus Uridine-diphosphate-N-acetvimuramoyl: L-alanine lipase, MurC (Staphylococcus aureus, UniProt Q2FXJ0).
T2 sequence (Q2FXJ0 1-437): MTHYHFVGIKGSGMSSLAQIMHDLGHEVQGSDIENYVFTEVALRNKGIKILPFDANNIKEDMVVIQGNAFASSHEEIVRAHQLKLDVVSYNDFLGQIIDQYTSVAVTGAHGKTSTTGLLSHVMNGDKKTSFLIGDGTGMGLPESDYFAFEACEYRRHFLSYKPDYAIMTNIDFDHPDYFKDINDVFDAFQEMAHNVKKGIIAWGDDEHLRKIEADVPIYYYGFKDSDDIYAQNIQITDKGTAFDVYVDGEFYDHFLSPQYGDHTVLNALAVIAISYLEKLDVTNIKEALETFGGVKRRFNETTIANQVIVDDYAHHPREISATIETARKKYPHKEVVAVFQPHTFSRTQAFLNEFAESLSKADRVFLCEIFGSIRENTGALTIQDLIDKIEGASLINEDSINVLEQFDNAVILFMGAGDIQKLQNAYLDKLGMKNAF
Put plainly: biochemical. The conditions noted are these: (S) S. aureus enzyme. How it is done:
S. aureus and E. coli Uridine-diphosphate-N-acetvimuramoyl: L-alanine lipase, MurC
Preparation of Enzyme Solution:
A 1 mg/mL stock solution of MurC is prepared in a buffer consisting of 20 mM Tris/HCl (pH 8.5) with 2.5 μM BME. The stock solution is further diluted with the buffer to give a final enzyme concentration of 100 μg/mL for the E. coli stock solution and 70 μg/mL for the S. aureus stock solution.
Preparation of Test Compound Solutions:
All test solutions are prepared in DMSO as 10 mg/mL, then diluted with 50 mM Tris/HCl (pH 8.5) to 100 μg/mL.
Preparation of Stop Solution:
The stop solution is prepared by stirring 1 part 4.2% ammonium molydbate in 4N HCl with 2 parts 0.045% malachite green for 30 min.
In this evaluation, the inhibitory activity of a test compound against MurC, the enzyme which catalyzes the third step of bacterial cell wall bioxynthesis is determined. Experiments are performed by adding 2.5 μl buffer, 2.5 μl 0.5M NH4SO2, 5 μl 2 μM L-Ala, 5 μl enzyme solution and 6.5 μl test compound solution to each well in a 96-well microplate. After a pre-incubation period of 10 mins. at 23° C., 3.75 μl of a 0.75 μM solution of UDP-MurNac is added to each well. Following an incubation period of 10 mins. at 37° C., 210 μl stop solution and 50 μl of a 34% w/v sodium citrate solution are added and color is allowed to develop for 10 mins. at 23° C. (Lanzetta et al., Analytical Biochemistry, 1979, 95) Optical density readings are taken at 660 nm using a Molecular Devices Spectra Max 250 with Soft Max software. Controls are performed using the same procedure and omitting the addition of UDP-MurNac. […]
Using these values the IC50 is determined by linear regression analysis.
As to `O=C1O/C(=C\c2ccc(-c3cccc(C(F)(F)F)c3)cc2)C(O)=C1c1cccc(C(F)(F)F)c1`, the “MurC IC50” value came out at 22 µg/mL.
Still for that read-out and setting: for `O=C1OC(=Cc2ccc(-c3ccccc3)cc2)C(O)=C1c1cccc(C(F)(F)F)c1` (mixture of isomers) [Example 11] the value was 5 µg/mL.
Still for that read-out and setting: for `Cc1ccc(C=C2OC(=O)C(c3ccc(Cl)cc3)=C2O)s1` (mixture of isomers) [Example 13] the value was 15 µg/mL; for `O=C1OC(=Cc2cccc3ccccc23)C(O)=C1c1ccc(C=NO)cc1` (mixture of isomers) [Example 73], 23 µg/mL.
Consider `Cc1ccc(C=C2OC(=O)C(c3ccc(Cl)cc3)=C2O)s1` [Example 14], for which the “MurC IC50” value turned out to be 22 µg/mL.
On the same count and under the same terms, the same measure for `O=C1OC(=CC2CCCCC2)C(O)=C1c1cccc(C(F)(F)F)c1` [Example 16]: 22 µg/mL.

The same test, now with this note: (S) S. aureus enzyme; read-out: MurC IC50 (converted).
Regarding `O=C1O/C(=C\c2ccc(-c3cc(Cl)cc(Cl)c3)cc2)C(O)=C1c1cc(Cl)cc(Cl)c1`, the IC50 was 48.1 µM.
Still for that read-out and setting: the same measure for `O=C1O/C(=C\c2ccc(-c3ccccc3)cc2)C(O)=C1c1cccc(C(F)(F)F)c1` [Example 10]: 17.1 µM.
In the case of `O=C1O/C(=C\C2CCCCC2)C(O)=C1c1ccc(Cl)cc1` [Example 15], the IC50 is over 82 µM.
Take `O=C1O/C(=C\C2CCCCC2)C(O)=C1c1cccc(C(F)(F)F)c1` [Example 17]: the half-inhibitory concentration (IC50) is over 73.9 µM.
Same read-out and setting: for `COc1cc(/C=C2\OC(=O)C(c3cccc(Cl)c3)=C2O)ccc1-c1ccccc1Cl` [Example 18] the value was 22.8 µM; for `COc1ccccc1-c1ccc(/C=C2\OC(=O)C(c3cc(Cl)cc(Cl)c3)=C2O)cc1OC` [Example 19], 40.5 µM; for `O=C1O/C(=C\c2cccc(C(F)(F)F)c2)C(O)=C1c1ccc2ccccc2c1` [Example 42], 47.1 µM.
As to `O=C1O/C(=C\C2CCCCC2)C(O)=C1c1ccc2ccccc2c1` [Example 51], the IC50 is 62.4 µM.
Still for that read-out and setting: the same measure for `O=C1O/C(=C\c2cccc(C(F)(F)F)c2)C(O)=C1c1ccc(-c2ccccc2)c(F)c1` [Example 106]: 28.1 µM.

The next test deals with Streptococci. Put plainly: Minimum inhibitory concentration, microdilution broth method, streptococci. Format: cell-based. Conditions: Mueller-Hinton broth with 5% horse blood, 18-22 hours at 35° C. The method in brief:
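Recent clinical isolates, some resistant to methicillin, penicillin and/or vancomycin, were tested by the broth microdilution method of NCCLS Approved Standard M7-A5 2000. Mueller-Hinton broth served for staphylococci and enterococci, while streptococci received the same broth supplemented with 5% horse blood.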
For the compound `O=C1O/C(=C\c2ccc(-c3cccc(C(F)(F)F)c3)cc2)C(O)=C1c1cccc(C(F)(F)F)c1`, the “MIC S. pneumo GC 1894” value is under 0.125 µg/mL.
On the same count and under the same terms, for `O=C1OC(=Cc2ccc(-c3ccccc3)cc2)C(O)=C1c1cccc(C(F)(F)F)c1` (mixture of isomers) [Example 11] the value was under 0.125 µg/mL.
With `Cc1ccc(C=C2OC(=O)C(c3ccc(Cl)cc3)=C2O)s1` (mixture of isomers) [Example 13], the “MIC S. pneumo GC 1894” value worked out at 2 µg/mL.
On the same count and under the same terms, for `O=C1OC(=Cc2cccc3ccccc23)C(O)=C1c1ccc(C=NO)cc1` (mixture of isomers) [Example 73] the value was 64 µg/mL.
Same read-out and setting: for `Cc1ccc(C=C2OC(=O)C(c3ccc(Cl)cc3)=C2O)s1` [Example 14] the value was 64 µg/mL (≈ 201 µM); for `O=C1OC(=CC2CCCCC2)C(O)=C1c1cccc(C(F)(F)F)c1` [Example 16], 0.5 µg/mL (≈ 1.48 µM).

The same test, now with this note: S. pneumo GC 1894; Mueller-Hinton broth with 5% horse blood, 18-22 hours at 35° C.
`O=C1O/C(=C\c2ccc(-c3cc(Cl)cc(Cl)c3)cc2)C(O)=C1c1cc(Cl)cc(Cl)c1` yielded an MIC of under 0.125 µg/mL.
Same read-out and setting: the same measure for `O=C1O/C(=C\c2ccc(-c3ccccc3)cc2)C(O)=C1c1cccc(C(F)(F)F)c1` [Example 10]: under 0.125 µg/mL; for `O=C1O/C(=C\C2CCCCC2)C(O)=C1c1ccc(Cl)cc1` [Example 15]: 0.5 µg/mL (≈ 1.64 µM).
Same read-out and setting: for `O=C1O/C(=C\C2CCCCC2)C(O)=C1c1cccc(C(F)(F)F)c1` [Example 17] the value was under 0.125 µg/mL; for `COc1cc(/C=C2\OC(=O)C(c3cccc(Cl)c3)=C2O)ccc1-c1ccccc1Cl` [Example 18], 0.5 µg/mL (≈ 1.14 µM).
In the case of `COc1ccccc1-c1ccc(/C=C2\OC(=O)C(c3cc(Cl)cc(Cl)c3)=C2O)cc1OC` [Example 19], the MIC was 0.5 µg/mL (≈ 1.07 µM).
Take `O=C1O/C(=C\c2cccc(C(F)(F)F)c2)C(O)=C1c1ccc2ccccc2c1` [Example 42]: the MIC turned out to be 8 µg/mL (≈ 20.9 µM).
Compound `O=C1O/C(=C\c2cccc3ccccc23)C(O)=C1c1cccc2ccccc12` [Example 47] registered an MIC of 16 µg/mL (≈ 43.9 µM).
On the same count and under the same terms, the same measure for `O=C1O/C(=C\C2CCCCC2)C(O)=C1c1ccc2ccccc2c1` [Example 51]: under 0.125 µg/mL.
Still for that read-out and setting: for `O=C1O/C(=C\c2cccc(C(F)(F)F)c2)C(O)=C1c1ccc(-c2ccccc2)c(F)c1` [Example 106] the value was 0.25 µg/mL (≈ 0.586 µM).
